# Test results: patent publication US11492347B2 (ENYO PHARMA, priority 2018, dated 2022)
# Legend:
# [1] = test system: LXFL 1121; assay: Cytotoxicity, propidium iodide based monolayer assay; conditions: 96 h; LXFL 1121 lung large cell carcinoma, four days of treatment, T/C=50%; read-out: Absolute IC50
# Description: (§1) The cytotoxicity was tested for compounds of the invention on five different cell-lines, namely LXFL 1121, MAXF 401, MMXF L-636, PRXF PC-3M and UXF 1138 which are respectively lung large cell carcinoma, breast adeno carcinoma, multiple myeloma, prostate adeno carcinoma and uterine sarcoma.
# (§2) A working stock solution of the test compounds was prepared in DMSO at a concentration of 33 mM or 8.25 mM, and small aliquots were stored at −20° C. On each day of an experiment, a frozen aliquot of the working stock solution was thawed and stored at room temperature prior to and during treatment.
# (§3) All liquid handling steps were performed using the Tecan Freedom EVO 200 platform. First, serial 2-fold dilutions of the 33 mM DMSO working stock solution were done in DMSO. The DMSO dilutions were then diluted 1:22 into cell culture medium in an intermediate dilution plate. Finally, 10 μl taken from the intermediate dilution plate were transferred to 140 μl/well of the final assay plate. Thus, the DMSO serial dilutions were diluted 1:330 with cell culture medium, and the DMSO concentration in the assay was 0.3% v/v.
# Cell lines were routinely passaged once or twice weekly and maintained in culture for up to 20 passages. […]
# A modified propidium iodide (PI) based monolayer assay was used to assess the anti-cancer activity of the compounds. Briefly, cells were harvested from exponential phase cultures, counted and plated in 96 well flat-bottom microtiter plates at a cell density of 4,000 to 40,000 cells/well dependent on the cell line's growth rate. […] After an incubation period of 1-2 hours at room temperature, fluorescence (FU) was measured using the Enspire Multimode Plate Reader (excitation λ=530 nm, emission k=620 nm) to quantify the amount of attached viable cells.
# Drug effects were expressed in terms of the percentage of the fluorescence signal, obtained by comparison of the mean signal in the treated wells with the mean signal of the untreated controls (expressed by the test-versus-control value, T/C−value [%]): […]
# [2] = test system: PRXF PC-3M; assay: as above; assay type: cell-based; conditions: Homo sapiens, 96 h; PRXF PC-3M prostate adeno carcinoma, four days of treatment, T/C=50%; read-out: Absolute IC50
# Description: as §1, §2, §3
# (§4) Cell lines were routinely passaged once or twice weekly and maintained in culture for up to 20 passages. Most cell lines were grown at 37° C. in a humidified atmosphere with 5% CO2 in RPMI 1640 medium (25 mM HEPES, with L-glutamine, #FG1385, Biochrom, Berlin, Germany) supplemented with 10% (v/v) fetal calf serum (Sigma, Taufkirchen, Germany) and 0.05 mg/mL gentamicin (Life Technologies, Karlsruhe, Germany).
# (§5) A modified propidium iodide (PI) based monolayer assay was used to assess the anti-cancer activity of the compounds. Briefly, cells were harvested from exponential phase cultures, counted and plated in 96 well flat-bottom microtiter plates at a cell density of 4,000 to 40,000 cells/well dependent on the cell line's growth rate. The individual seeding density for each cell line ensure exponential growth conditions over the whole or at least the bigger part of the treatment period. After a 24 h recovery period, to allow the cells to resume exponential growth, 10 μl of culture medium (6 control wells/cell line/plate) or of culture medium with test compounds were added. Compounds were applied at ten concentrations in 2-fold increments in duplicates up to 25 μM or 100 μM and treatment continued for four days. After four days of treatment, cells were next washed with 200 μl PBS to remove dead cells and debris, then 200 μl of a solution containing 7 μg/ml propidium iodide (PI) and 0.1% (v/v) Triton X-100 was added. After an incubation period of 1-2 hours at room temperature, fluorescence (FU) was measured using the Enspire Multimode Plate Reader (excitation λ=530 nm, emission k=620 nm) to quantify the amount of attached viable cells.
# (§6) Drug effects were expressed in terms of the percentage of the fluorescence signal, obtained by comparison of the mean signal in the treated wells with the mean signal of the untreated controls (expressed by the test-versus-control value, T/C−value [%]):
# (§7) [formula] IC values reported reflect the concentration of the test compound that achieves T/C=50%. Calculation was done by 4 parameter non-linear curve fit.
# [3] = test system: MAXF 401; assay: as above; assay type: cell-based; conditions: Homo sapiens, MAXF401, 96 h; MAXF 401 breast adeno carcinoma, four days of treatment, T/C=50%; read-out: Absolute IC50
# Description: as §1, §2, §3, §4, §5, §6, §7
# [4] = test system: MMXF L-363; assay: as above; assay type: cell-based; conditions: Homo sapiens, 96 h; MMXF L-363 multiple myeloma, four days of treatment, T/C=50%; read-out: Absolute IC50
# Description: as §1, §2, §3, §4, §5, §6, §7
# [5] = test system: NFκB; assay: NFκB reporter assay, TNFα stimulation of A549 NFκB-NanoLuciferase reporter cells; assay type: cell-based; conditions: Homo sapiens, 4 ng/ml TNFα, NanoGlo luciferase assay 6 hours later
# Description: Compounds of the present invention have been tested for their capacity to inhibit NFκB.
# The NFκB reporter construct was made by cloning 5 NFκB responsive elements upstream of a NanoLuciferase reporter gene flanked by AAVS1 genomic sequences.
# NFκB Responsive element fused with NanoLuciferase and SV40 late Poly(A) signal was amplified from pNL3.2-NFκB-Nluc (Promega) using NFKB-NLUC-F and NFKB-NLUC-R primers and inserted by Infusion (TaKaRa) in AAVS1 SA-2A-puro-pA donor plasmid (Hockemeyer et al, Nat Biotechnol. 2009, 27, 851-7) digested by Sal1. pCRISPR AAVS1-T2 expressing a guide RNA (gRNA) to target human AAVS1 (T2 target sequence) was constructed by inserting AAVS1-T2A hybridized primers in pLentiCRISPR v2-blast (Sanjana et al, Nat Methods. 2014, 11, 783-4) digested by Bsmbl.
# A549 cells were transfected by the plasmids and puromycine selected for 5 days (1 μg mL-1). Then clones were obtained by limiting dilution and selected to maximize TNF dependent NFκB-NanoLuciferase induction.
# The reporter cells were seeded on a 96-well plate for overnight with DMEM including 10% FBS. Test compounds were added at varying concentrations. The cells then were treated with 4 ng/ml TNFα (Peprotech, ref E251) in DMEM+10% FBS. NanoGlo luciferase assay (Promega) was carried out 6 hours later. Luminescence was measured using a Spark 20M spectrofluorimeter (Tecan). Values were normalized to the luminescence measured in untreated cells.
Structure (SMILES),IC50 [1] [µM],IC50 [2] [µM],IC50 [3] [µM],IC50 [4] [µM],EC50 [5] [µM]
"COC1CN(c2ccc(C(=O)Nc3sc4c(c3C(=O)O)CC(C)(C)CC4(C)C)cc2)C1 [Compound #58, 2-[[4-(3-Methoxyazetidin-1-yl)benzoyl]amino]-5,5,7,7-tetramethyl-4,6-dihydrobenzothiophene-3-carboxylic acid]",1.77,0.888,,,
"CC1(C)CCc2sc(NC(=O)c3ccccc3)c(C(=O)O)c21 [Compound #37, 2-Benzamido-4,4-dimethyl-5,6-dihydrocyclopenta[b]thiophene-3-carboxylic acid]",24.7,9.67,11.3,13.9,
"CC1(C)Cc2c(sc(NC(=O)c3ccc(N4CCOCC4)cc3)c2C(=O)O)C(C)(C)C1 [Compound #36, 5,5,7,7-Tetramethyl-2-[(4-morpholinobenzoyl)amino]-4,6-dihydrobenzothiophene-3-carboxylic acid]",,,,1.72,0.2
